US5723458A, “Hypolipidaemic compounds” (Glaxo Wellcome Inc., priority 1993, dated 1998)

System: rat distal ileal brush border membrane vesicles (active, sodium-dependent 3H taurocholate uptake)
Assay: In vitro inhibition of bile acid uptake
Assay type: biochemical
Conditions: 30 seconds at 24° C., versus control active uptake
Description: In vitro inhibition of bile acid uptake
Freshly prepared rat distal ileal brush border membrane vesicles (about […] vesicle protein) were incubated for 30 seconds at 24° C. in an incubation mixture comprising […] ^3 H taurocholate, 100 mM NaCl (or KCl) and 80 mM mannitol in 20 mM Hepes Tris pH 7.4. Each test compound was dissolved in ethanol (or water) and then diluted with incubation mixture to an ethanol concentration of not more than 1% v/v. The incubation was terminated by rapid dilution and filtration and the filter washed with an ice-cold isotonic sodium-free buffer.
The uptake of ^3 H taurocholate was measured by the radioactivity remaining on the filter and converted to pmoles/mg vesicle protein. The active, ie sodium-dependent, uptake was obtained by subtracting the passive uptake measured in 100 mM KCl from the total uptake measured in 100 mM NaCl. The active uptake for each test compound was compared with a control active uptake and the results expressed as % inhibition of bile acid uptake.
Data is given below for % inhibition of bile acid uptake at various concentrations of compounds of the invention.

Compound | % inhibition of bile acid uptake (3 μM test compound) [%] | % inhibition of bile acid uptake (10 μM test compound) [%] | % inhibition of bile acid uptake (0.3 μM test compound) [%] | % inhibition of bile acid uptake (1 μM test compound) [%]
CC[C@@H](O)C[C@@]1(CC)CS(=O)(=O)c2ccccc2[C@H](c2ccccc2)N1 (racemic) [Example 1, (+-)-trans-3-ethyl-2,3,4,5-tetrahydro-3-((2R)-2hydroxybutyl)-5-phenyl-1,4-benzothiazepine 1,1-dioxide] | 36 | 69 |  | 
CC[C@@H](O)C[C@@]1(CC)CS(=O)(=O)c2cc(OC)ccc2[C@H](c2ccccc2)N1 (racemic) [Example 2] | 60 | 83 | 22 | 44
CC[C@]1(C[C@H](O)CC(F)(F)F)CS(=O)(=O)c2ccccc2[C@H](c2ccccc2)N1 (racemic) [Example 11, (+-)-trans-1-(3-ethyl-2,3,4,5-tetrahydro-5-phenyl-1,4-benzothiazepin-3-yl)-4,4,4-trifluoro-(2S)-2-butanol-S,S-dioxide] | 63 | 85 | 13 | 31
CC[C@]1(C[C@H](O)CC(F)(F)F)CS(=O)(=O)c2ccc(OC)cc2[C@H](c2ccccc2)N1 (racemic) [Example 12, (+-)-trans-1-(3-ethyl-2,3,4,5-tetrahydro-7-methoxy-5-phenyl-1,4-benzothiazepin-3-yl)-4,4,4-trifluoro-(2S)-2-butanol-S,S-dioxide] | 86 | 95 | 47 | 72
CCC1NC(c2ccc(O)cc2)c2ccccc2S(=O)(=O)C1C[C@@H](O)CC (mixture of isomers) [Example 24, (+-)-Trans-3-Ethyl-2,3,4,5-tetrahydro-2-(2(S)-2-hydroxybutyl)-5-(4-hydroxyphenyl)-1,4-benzothiazepine 1,1-dioxide] |  | 23 |  | 
